Legend:
NET = type: binding, rat; settings: selectivity ratio for SERT over NET
DAT = DAT (Rattus norvegicus, UniProt P23977); type: binding
Sequence of DAT (P23977 whole entry): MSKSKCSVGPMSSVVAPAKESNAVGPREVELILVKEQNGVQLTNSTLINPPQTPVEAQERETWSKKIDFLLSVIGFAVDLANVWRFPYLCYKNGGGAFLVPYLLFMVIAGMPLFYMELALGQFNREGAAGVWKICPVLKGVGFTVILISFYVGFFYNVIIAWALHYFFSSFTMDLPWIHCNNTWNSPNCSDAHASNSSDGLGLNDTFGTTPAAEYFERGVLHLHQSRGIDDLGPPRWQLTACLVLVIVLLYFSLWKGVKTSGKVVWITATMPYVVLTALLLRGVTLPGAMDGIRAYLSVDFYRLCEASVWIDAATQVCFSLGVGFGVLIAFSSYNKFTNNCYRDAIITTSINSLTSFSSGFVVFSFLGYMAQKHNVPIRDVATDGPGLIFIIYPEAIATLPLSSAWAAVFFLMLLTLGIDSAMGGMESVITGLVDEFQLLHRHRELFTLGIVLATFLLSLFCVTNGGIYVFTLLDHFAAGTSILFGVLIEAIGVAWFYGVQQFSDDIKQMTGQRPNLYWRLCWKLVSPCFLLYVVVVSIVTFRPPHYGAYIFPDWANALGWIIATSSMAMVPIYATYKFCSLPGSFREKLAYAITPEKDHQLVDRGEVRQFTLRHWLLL

Row | Structure (SMILES) | Ki(NET)/Ki (SERT) (NET) | Ki (DAT) [nM] | Ki(DAT)/Ki (SERT) (DAT; selectivity ratio for SERT over DAT)
1 | CN(C)CCCC1(c2ccc(F)cc2)OCc2cc(-c3cccc(F)c3)ccc21 (stereo not shown) [Compound 15, 3-(5-(3-Fluorophenyl)-1-(4-fluorophenyl)-1,3-dihydroisobenzofuran-1-yl)-N,N-dimethylpropan-1-amine] | 193 | – | –
2 | COc1cccc(-c2ccc3c(c2)COC3(CCCN(C)C)c2ccc(F)cc2)c1 (stereo not shown) [Compound 11, 3-(1-(4-Fluorophenyl)-5-(3’-methoxyphenyl)-1,3-dihydroisobenzofuran-1-yl)-N,N-dimethylpropan-1-amine] | 284 | – | –
3 | CN(C)CCCC1(c2ccc(F)cc2)OCc2cc(Br)ccc21 (stereo not shown) [Compound 5, 3-(5-bromo-1-(4-fluorophenyl)-1,3-dihydroisobenzofuran-1-yl)-N,N-dimethylpropan-1-amine] | >10,000 | 1650 ± 112 | 1590
4 | CN(C)CCCC1(c2ccc(F)cc2)OCc2cc(-c3cc(F)cc(F)c3)ccc21.O=C(O)C(=O)O (stereo not shown) [Compound 13, 3-(5-(3,5-Difluorophenyl)-1-(4-fluorophenyl)-1,3-dihydroisobenzofuran-1-yl)-N,N-dimethylpropan-1-amine oxalate] | 19 | – | –
5 | CN(C)CCCC1(c2ccc(F)cc2)OCc2cc(CCc3ccccc3)ccc21 (stereo not shown) [Compound 14, 3-(1-(4-Fluorophenyl)-5-phenethyl-1,3-dihydroisobenzofuran-1-yl)-N,N-dimethylpropan-1-amine] | 122 | – | –

— paper PMC2932959 (Journal of medicinal chemistry, 2010)
